# Results reported in ChEMBL document CHEMBL1201862, “PubChem BioAssay data set” (2004).
# Calls of active or inactive are those of the source.
# How the values were obtained:
# [1] = luciferase reporter signal suppression in cells – H4 neuroglioma cells, luminescence, dose response (AID 1990); type: functional, cell-based
# [2] = alpha-synuclein stem-loop luciferase translation blockers – H4 neuroglioma cells, luminescence, confirmation (AID 1988); type: functional, cell-based
# [3] = Luminescence Cell-Based Dose Response HTS to Identify Inhibitors of 5'UTR Stem-Loop Driven Prion Protein mRNA Translation in H4 Neuroglioblastoma Cells. [Related pubchem assays: 1827 (Project Summary), 1813 (Primary HTS)]; type: functional
# [4] = molecular target: T1, Protein skinhead-1 (Caenorhabditis elegans, UniProt P34707); type: functional
# T1 sequence (P34707 whole entry): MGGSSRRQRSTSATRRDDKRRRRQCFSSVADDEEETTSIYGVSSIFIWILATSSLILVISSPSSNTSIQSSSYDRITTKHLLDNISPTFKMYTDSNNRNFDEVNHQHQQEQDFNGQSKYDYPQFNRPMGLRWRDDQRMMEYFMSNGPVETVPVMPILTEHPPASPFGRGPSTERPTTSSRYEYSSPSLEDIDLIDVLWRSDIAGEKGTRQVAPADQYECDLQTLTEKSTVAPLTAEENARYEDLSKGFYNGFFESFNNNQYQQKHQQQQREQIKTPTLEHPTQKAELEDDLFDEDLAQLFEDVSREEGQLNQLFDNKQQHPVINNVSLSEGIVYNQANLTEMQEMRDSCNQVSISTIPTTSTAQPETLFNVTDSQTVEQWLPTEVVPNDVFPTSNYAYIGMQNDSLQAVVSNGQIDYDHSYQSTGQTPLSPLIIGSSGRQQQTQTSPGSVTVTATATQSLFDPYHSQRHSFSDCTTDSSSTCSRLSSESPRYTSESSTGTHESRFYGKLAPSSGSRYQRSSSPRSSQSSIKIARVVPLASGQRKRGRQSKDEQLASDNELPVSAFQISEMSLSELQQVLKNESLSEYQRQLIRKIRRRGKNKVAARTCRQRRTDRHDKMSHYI
# [5] = molecular target: T2, Heat shock factor protein 1 (Mus musculus, UniProt P38532); experiment: enhancement of HSF1-driven luciferase signal – cell-based, NIH3T3, luminescence, dose retest, confirmation (AID 435004); type: functional;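 further: stress induced by proteasome inhibitor MG132 added 30 min after compound; luciferase reporter driven by HSF1 response element in NIH3T3 cells; actives raise luminescence as potentiators of the MG132 stress response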
# T2 sequence (P38532 whole entry): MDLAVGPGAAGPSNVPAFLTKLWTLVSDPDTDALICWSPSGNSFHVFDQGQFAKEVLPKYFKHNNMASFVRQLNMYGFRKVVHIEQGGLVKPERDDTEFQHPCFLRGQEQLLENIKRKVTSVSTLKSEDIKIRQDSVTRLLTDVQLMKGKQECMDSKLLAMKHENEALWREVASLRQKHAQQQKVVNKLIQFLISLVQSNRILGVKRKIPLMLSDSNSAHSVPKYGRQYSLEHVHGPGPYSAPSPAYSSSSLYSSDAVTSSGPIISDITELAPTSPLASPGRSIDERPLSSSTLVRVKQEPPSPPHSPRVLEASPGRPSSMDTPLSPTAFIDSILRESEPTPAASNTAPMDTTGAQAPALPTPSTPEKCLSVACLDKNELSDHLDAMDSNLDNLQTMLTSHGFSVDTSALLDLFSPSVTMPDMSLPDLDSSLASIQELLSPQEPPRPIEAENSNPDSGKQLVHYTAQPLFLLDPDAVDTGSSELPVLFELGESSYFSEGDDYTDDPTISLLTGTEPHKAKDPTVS
# [6] = molecular target: T3, Corticotropin-releasing factor receptor 2/Corticotropin-releasing factor-binding protein (Homo sapiens, UniProt P24387+Q13324); experiment: activators of CRF receptor 2 with binding protein – uHTS hits, confirmation (AID 602473); type: functional; details: read-out: EC50_Mean
# T3 sequence (Q13324 whole entry): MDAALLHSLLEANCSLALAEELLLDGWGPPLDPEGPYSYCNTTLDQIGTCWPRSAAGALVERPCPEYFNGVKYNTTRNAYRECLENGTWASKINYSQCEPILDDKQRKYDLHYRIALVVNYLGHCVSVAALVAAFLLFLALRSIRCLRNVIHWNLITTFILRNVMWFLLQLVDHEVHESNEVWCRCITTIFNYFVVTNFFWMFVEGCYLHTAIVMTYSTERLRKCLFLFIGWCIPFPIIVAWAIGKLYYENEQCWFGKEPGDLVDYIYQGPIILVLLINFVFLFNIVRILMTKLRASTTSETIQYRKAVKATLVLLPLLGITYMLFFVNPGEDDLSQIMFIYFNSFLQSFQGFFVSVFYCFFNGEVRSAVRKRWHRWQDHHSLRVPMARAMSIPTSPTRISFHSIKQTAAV
# T3 sequence (P24387 whole entry): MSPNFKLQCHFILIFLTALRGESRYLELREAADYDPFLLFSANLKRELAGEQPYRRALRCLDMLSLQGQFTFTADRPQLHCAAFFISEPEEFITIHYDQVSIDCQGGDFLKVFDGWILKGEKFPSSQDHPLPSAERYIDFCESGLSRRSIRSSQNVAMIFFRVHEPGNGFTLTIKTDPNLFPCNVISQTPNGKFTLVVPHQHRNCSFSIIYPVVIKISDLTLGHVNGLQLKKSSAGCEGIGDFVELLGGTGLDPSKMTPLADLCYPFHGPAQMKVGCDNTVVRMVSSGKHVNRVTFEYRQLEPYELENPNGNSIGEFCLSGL
# [7] = molecular target: T3, Corticotropin-releasing factor receptor 2/Corticotropin-releasing factor-binding protein; experiment: Dose Response confirmation of uHTS hits for small molecule antagonists of the CRF-binding protein and CRF-R2 receptor complex.; type: functional; details: read-out: IC50_Mean
# [8] = test system: INS1; experiment: INS-1E survival protection against cytokine death – cell-based, luminescence, retest, dose response (AID 449756); type: functional; details: Rattus norvegicus;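 further: cell death triggered by IL-1 beta plus TNF-alpha plus IFN-gamma mixture; protective hits raise ATP signal compared with cytokine alone wells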
# [9] = NIH3T3 cell viability loss – ATP luminescence, mouse fibroblasts, counter-screen, dose response (AID 2010); type: functional, cell-based;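 further: cells exposed to compound for about 90 hours before reading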
# [10] = Trypanosoma cruzi growth suppression in host cells – NIH3T3 host cells, beta-gal luminescence, confirmation (AID 2044); type: functional, cell-based;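 further: intracellular parasites grown in NIH/3T3 mouse fibroblasts as host cells; luminescent beta-galactosidase reporter signal from transgenic T. cruzi replicating inside host cells; inhibitors lower the luminescence signal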
# [11] = viability of uninfected HEp-2 cells – cell-based, HTS, cytotoxicity control for RSV inhibitor project, dose response (AID 2410); type: functional; details: human respiratory syncytial virus
# [12] = molecular target: T2, Heat shock factor protein 1; experiment: decrease of HSF1-responsive luciferase luminescence – cell-based, NIH3T3, dose retest, confirmation (AID 2382); type: functional;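 further: NIH3T3 fibroblasts with HSF1-driven luciferase reporter stressed by proteasome inhibitor MG132; luminescence from HSF1-driven luciferase expression after 8 hours of MG132 stress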
# [13] = molecular target: T4, Cytochrome P450 1A2 (Homo sapiens, UniProt P05177);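 further: PubChem cytochrome P450 panel assay, CYP1A2 panel member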
# T4 sequence (P05177 whole entry): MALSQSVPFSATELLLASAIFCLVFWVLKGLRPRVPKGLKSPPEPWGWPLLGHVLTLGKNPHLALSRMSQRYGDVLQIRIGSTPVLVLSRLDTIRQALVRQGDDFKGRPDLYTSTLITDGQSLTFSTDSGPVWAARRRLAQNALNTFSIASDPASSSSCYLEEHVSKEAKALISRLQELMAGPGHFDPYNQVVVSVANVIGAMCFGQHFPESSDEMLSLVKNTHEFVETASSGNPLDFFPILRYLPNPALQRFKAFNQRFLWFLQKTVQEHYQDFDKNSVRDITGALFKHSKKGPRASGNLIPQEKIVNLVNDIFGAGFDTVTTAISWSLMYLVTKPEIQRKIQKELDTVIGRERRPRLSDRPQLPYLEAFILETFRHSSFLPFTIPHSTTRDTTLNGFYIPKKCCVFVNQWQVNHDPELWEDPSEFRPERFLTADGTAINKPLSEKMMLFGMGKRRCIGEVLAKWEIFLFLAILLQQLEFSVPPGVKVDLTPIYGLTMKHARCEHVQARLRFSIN
# [14] = molecular target: Cytochrome P450 2C9 (Homo sapiens, UniProt P11712)
# Cytochrome P450 2C9, sequence (P11712 whole entry): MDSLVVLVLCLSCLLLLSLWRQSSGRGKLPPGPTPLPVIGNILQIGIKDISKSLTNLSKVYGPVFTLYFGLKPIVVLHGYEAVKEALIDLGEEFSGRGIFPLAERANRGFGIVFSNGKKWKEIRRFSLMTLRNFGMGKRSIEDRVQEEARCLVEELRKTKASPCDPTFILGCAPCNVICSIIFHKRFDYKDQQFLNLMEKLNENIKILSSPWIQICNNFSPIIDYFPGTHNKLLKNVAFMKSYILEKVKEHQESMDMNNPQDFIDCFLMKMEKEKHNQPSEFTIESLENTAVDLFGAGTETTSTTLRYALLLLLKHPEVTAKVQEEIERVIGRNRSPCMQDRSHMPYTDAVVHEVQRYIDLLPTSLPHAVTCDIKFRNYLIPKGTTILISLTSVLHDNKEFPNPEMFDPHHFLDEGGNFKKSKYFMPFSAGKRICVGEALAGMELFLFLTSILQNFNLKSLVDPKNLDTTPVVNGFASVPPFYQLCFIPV
# [15] = molecular target: Cytochrome P450 3A4 (Homo sapiens, UniProt P08684);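 further: CYP3A4 tested as one member of a cytochrome P450 panel screen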
# Cytochrome P450 3A4, sequence (P08684 whole entry): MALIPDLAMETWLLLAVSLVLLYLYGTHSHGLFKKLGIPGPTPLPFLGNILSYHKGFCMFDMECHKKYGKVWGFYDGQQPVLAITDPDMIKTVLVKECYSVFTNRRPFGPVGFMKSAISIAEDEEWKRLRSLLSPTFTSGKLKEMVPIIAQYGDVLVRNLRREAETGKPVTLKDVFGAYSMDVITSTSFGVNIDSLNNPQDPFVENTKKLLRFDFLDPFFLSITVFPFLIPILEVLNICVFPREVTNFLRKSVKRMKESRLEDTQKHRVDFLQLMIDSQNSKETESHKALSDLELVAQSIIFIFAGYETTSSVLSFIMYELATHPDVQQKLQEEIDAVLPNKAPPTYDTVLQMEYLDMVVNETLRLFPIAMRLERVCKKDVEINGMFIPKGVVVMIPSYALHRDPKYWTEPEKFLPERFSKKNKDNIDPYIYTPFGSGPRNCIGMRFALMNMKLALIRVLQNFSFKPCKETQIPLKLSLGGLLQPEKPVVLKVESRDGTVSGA
# [16] = Luminescence Cell-Based Dose Retest to Confirm Inhibitors of Cancer Stem Cells. [Related pubchem assays (depositor defined):AID2717, AID2721]; type: functional; details: Homo sapiens
smiles,measurement,setting,value
COc1ccc(NC(=O)c2cccc(N3C(=O)c4ccc(C(=O)Nc5ccc(OC)c(O)c5)cc4C3=O)c2)cc1O,EC50,[1],15 µM (active)
same,EC50,[2],13.4 µM (active)
Cc1cccc(C)c1/N=C1\SC(CC(=O)Nc2c(C)cccc2C)C(=O)N1CCc1ccccn1 (stereo unspecified),EC50,[1],10.2 µM (active)
same,EC50,[3],0.46 µM (active)
same,EC50,[2],95.8 µM (active)
O=C(Nc1ccc(-c2noc(CCc3ccccc3)n2)cc1)c1ccco1,IC50,[4],> 100 µM (inactive)
c1ccc(CSc2ncnc3ccccc23)cc1,IC50,[4],36.1 µM (active)
COc1ccc(CNC(=O)CN(Cc2ccccc2)C(=O)CCC(=O)Nc2nccs2)cc1,EC50,[5],> 260 µM (inactive)
CCCNC(=O)c1c(CSc2ccc(Cl)cc2)noc1C(=O)NCc1ccccc1,EC50,[5],> 260 µM (inactive)
CCOc1cc(/C=N\NC(=O)C2C(=O)NCC2c2ccccc2)ccc1OC (stereo unspecified),EC50,[1],> 120 µM (not active)
same,EC50,[3],> 120 µM (not active)
same,EC50,[2],> 120 µM (not active)
same,EC50,[6],5.59 µM (active)
COc1ccccc1/C=C/c1nc(S(=O)(=O)c2ccccc2)c(N(C)C)o1,IC50,[7],< 0.368 µM (active)
same,EC50,[6],> 53 µM (inactive)
CCCCOC(=O)Nc1ccc(N2CCCCC2)cc1,IC50,[4],10.6 µM (active)
CS(=O)(=O)N(CC(=O)Nc1ccc(CC#N)cc1)c1ccc(C23CC4CC(CC(C4)C2)C3)cc1,AC50,[8],6.44 µM (active)
same,EC50,[9],> 60 µM (not active)
same,EC50,[10],2.35 µM (active)
same,EC50,[5],> 260 µM (inactive)
CCOC(=O)CSc1nc2c(sc3ccc([N+](=O)[O-])cc32)c(=O)n1Cc1ccco1,EC50,[5],> 260 µM (inactive)
CC1CCCCN1S(=O)(=O)c1ccc(C(=O)Nc2sccc2C(N)=O)cc1 (stereo unspecified),CC50,[11],19.2 µM (active)
same,EC50,[12],> 195 µM (not active)
same,IC50,[4],> 100 µM (inactive)
COc1cc(NC(=O)c2cc3ccccc3o2)c(OC)cc1Br,EC50,[3],> 120 µM (not active)
same,AC50,[13],2.24 µM (inconclusive)
same,AC50,[14],0.112 µM (inconclusive)
same,EC50,[2],14.7 µM (active)
same,AC50,[15],10 µM (inconclusive)
CC(C)CC(=O)Nc1ccc(N2CCOCC2)cc1,EC50,[5],> 260 µM (inactive)
C=C(C)COc1ccc(-c2nc(N)ncc2-c2ccc(OC)c(OC)c2)c(O)c1,EC50,[1],33.7 µM (active)
same,EC50,[3],> 120 µM (not active)
same,EC50,[2],15.7 µM (active)
COC(=O)c1c(NC(=O)c2ccco2)sc2c1CCC2,AC50,[16],68.2 µM (active)
same,AC50,[15],39.8 µM (inconclusive)
same,IC50,[4],> 100 µM (inactive)
